{"source": "patent US8445712B2", "about": "“Phospholipid derivative and pH-responsive liposomes” (NOF Corporation, priority 2009, dated 2013)", "assay": "Measurement test of pH-sensitiveness of liposome (release of enclosed pyranine/DPX at a given pH)", "assay_type": "physicochemical", "conditions": "Example 15 (Table 2) compared with Example 19 (Table 3); 11 mol % derivative in EYPC liposome", "procedure": "Using the liposomes prepared in Examples 5-13 and Comparative Example 1, pH-sensitiveness measurement tests were performed.\nTo the liposome solution obtained in Example 5 was added phosphate buffered saline (hereinafter to be indicated as “PBS”) to adjust the lipid concentration of the liposome to 1.6 mmol/l. The PBS (2469 μl) adjusted to a given pH with 1N hydrochloric acid was placed in a quartz cell, a liposome dispersion (31 μl) was added thereto at 37° C. to adjust the lipid concentration to 20 μmol/l. After incubation at 37° C. for 15 min, fluorescence intensity (F15min) was measured. In addition, 10% aqueous Triton X-100 (manufactured by Sigma-Aldrich Japan Co. Ltd.) solution (25 μl) was added thereto, and the mixture was stirred, and the fluorescence intensity (Fmax) was measured.\nThe release (%) was calculated by the following formula.\n[formula] F15min: fluorescence intensity at 15 min after liposome addition F0: fluorescence intensity at t=0 by measurement with PBS at pH 7.4 Fmax: fluorescence intensity after addition of Triton", "data": [{"substance": "Octaglycerolglutaryl Distearylphosphatidylethanolamine 1,2-Cyclohexanedicarboxylic Acid Derivative [DSPE-CHexPG8G]", "values": [{"measurement": "pH sensitive property (comparison)", "result": "stronger pH sensitive property"}]}]}
